The numbers were not newly measured in patent publication US9782413B2, “Composition for treatment of essential thrombocythemia” (AOP ORPHAN PHARMACEUTICALS AG, priority 2010, dated 2017), which cites them from elsewhere.

Structures are written as SMILES.

For data set [1] the following is noted: after anagrelide administration.
Data set [2] deals with phosphodiesterase (PDE) 3.

As to `O=C1NC2=Nc3ccc(Cl)c(Cl)c3CN2C1O` (stereo not shown) [3-hydroxyanagrelide], the “delay of peak plasma level compared to the parent drug” value in data set [1] is given as “about 45 mm”. Also, the “phosphodiesterase (PDE) 3 inhibitory activity” value in data set [2] is listed as “considerably more potent than anagrelide”.
Consider `NC1=Nc2ccc(Cl)c(Cl)c2CN1` [RL 603, 2-amino-5,6-dichloro-3,4-dihydroquinazolone], for which the “platelet reduction in vivo” value with platelets is “lacks these activities”. The “phosphodiesterase (PDE) 3 inhibitory activity” value in data set [2] was “lacks these activities”.
